{"source": "patent US5554789A", "about": "“Arylpropionic derivative, a process for the preparation and the use thereof as an analgesic agent” (Laboratorios Menarini S.A., priority 1992, dated 1996)", "key": {"[1]": {"conditions": "cited from earlier work"}, "Swiss male mice": {"system": "Swiss male mice", "test": "Phenylbenzoquinone writhing test (analgesic activity)", "format": "in vivo"}, "[2]": {"conditions": "background; cited from earlier work"}, "Hygroscopicity": {"test": "Hygroscopicity", "format": "physicochemical"}, "pH in aqueous solution": {"test": "pH in aqueous solution", "format": "physicochemical"}, "[3]": {"test": "Analgesic action (general statements)", "format": "in vivo"}, "[4]": {"test": "Gastrolesive effect in animals"}, "[5]": {"test": "Toxicity (general statement)", "conditions": "compared with the other derivatives"}, "[6]": {"test": "Plasmatic levels of the (+)-(S) enantiomer in humans", "conditions": "vs (+)-(S)-ketoprofen free acid or double dose of racemic ketoprofen free acid"}, "[7]": {"test": "Dissolution rate in water", "format": "physicochemical", "conditions": "compared with compound (I)"}}, "note": "Counter-ions that a name gives are not always drawn. Like-named read-outs stand apart in the source and are kept apart here.", "data": [{"smiles": "CC(C(=O)O)c1cccc(C(=O)c2ccccc2)c1", "note": "(racemic) [(R,S)-ketoprofen, 2-(3-Benzoylphenyl)propionic acid]", "values": [{"measurement": "analgesic and antipyretic action", "setting": "[1]; background", "result": "potent analgesic and antipyretic action"}, {"measurement": "% Inhibition (analgesic effect, phenylbenzoquinone test)", "setting": "Swiss male mice; orally, 30 minutes prior to phenylbenzoquinone, 0.30 mg/kg", "result": "50.0 ± 7.8", "unit": "%"}]}, {"smiles": "CC(C(=O)O)c1cccc(C(=O)c2ccccc2)c1", "note": "(stereo not drawn) [sodium salt]", "values": [{"measurement": "hygroscopicity", "setting": "[2]", "result": "high hygroscopicity"}]}, {"smiles": "CC(C(=O)O)c1cccc(C(=O)c2ccccc2)c1", "note": "(racemic) [(R,S)-ketoprofen tromethamine salt]", "values": [{"measurement": "% Inhibition (analgesic effect, phenylbenzoquinone test)", "setting": "Swiss male mice; intravenously, 0.30 mg/kg (amount of ketoprofen injected)", "result": "62.9 ± 11.7", "unit": "%"}]}, {"smiles": "C[C@H](C(=O)O)c1cccc(C(=O)c2ccccc2)c1", "note": "[(+)-(S)-ketoprofen, (+)-(S)-2-(3-benzoylphenyl)propionic acid]", "values": [{"measurement": "analgesic action", "setting": "[1]; vs the racemic, administered doses being equal", "result": "faster acting and more potent analgesic than the racemic"}]}, {"smiles": "C[C@H](C(=O)O)c1cccc(C(=O)c2ccccc2)c1", "note": "[I, (+)-(S)-2-(3-benzoylphenyl)propionic acid tromethamine salt]", "values": [{"measurement": "hygroscopicity", "setting": "Hygroscopicity", "result": "very low hygroscopicity"}, {"measurement": "pH in aqueous solution", "setting": "pH in aqueous solution", "result": "physiologically compatible pH in aqueous solution"}, {"measurement": "analgesic action (onset, response, duration)", "setting": "[3]; vs racemic ketoprofen", "result": "faster onset of analgesic action, an enhanced analgesic response and a longer duration than racemic ketoprofen"}, {"measurement": "analgesic action and response", "setting": "[3]; vs racemic ketoprofen tromethamine salt", "result": "faster action and enhanced analgesic response than the racemic ketoprofen tromethamine salt"}, {"measurement": "gastrolesive effect", "setting": "[4]; animals, vs (+)-(S)-, (-)-(R)- and racemic ketoprofen", "result": "much less gastrolesive"}, {"measurement": "gastrolesive effect", "setting": "[4]; vs corresponding free acid or racemic ketoprofen", "result": "markedly less gastrolesive than the corresponding free acid or the racemic ketoprofen"}, {"measurement": "toxicity", "setting": "[5]", "result": "lower toxicity"}, {"measurement": "plasmatic levels of the active (+)-(S) enantiomer", "setting": "[6]", "result": "higher plasmatic levels of the active (+)-(S) enantiomer in a far shorter time"}, {"measurement": "analgesic effectiveness compared with racemic ketoprofen", "setting": "Swiss male mice; phenylbenzoquinone writhing test, intravenous and oral", "result": "same analgesic effectiveness as a racemic ketoprofen double dose"}]}, {"smiles": "C[C@H](C(=O)O)c1cccc(C(=O)c2ccccc2)c1", "note": "[L-lysine salt]", "values": [{"measurement": "dissolution rate", "setting": "[7]", "result": "significantly lower"}]}]}
